Test results: PMC9234961 (Journal of Medicinal Chemistry, 2022)
pIC50: −log10 of the molar value.

What was measured:
kinases (468) [1] = target: kinases (468) (Homo sapiens, UniProt P16234); settings: PDGFRA; 1000 nM
kinases (468) [2] = target: kinases (468) (Homo sapiens, UniProt P27448); settings: MARK3; 1000 nM
kinases (468) [3] = target: kinases (468) (Homo sapiens, UniProt Q9NRP7); settings: kinase STK36 (Entrez STK36); compound concentration 1000 nM
ADRA2A = target: T1, ADRA2A (Homo sapiens, UniProt P08913); assay: SAFETYScan GPCR cAMP, Antagonist; format: cell-based
T1 construct: expressed in transfected cells
T1 sequence (P08913 1-465): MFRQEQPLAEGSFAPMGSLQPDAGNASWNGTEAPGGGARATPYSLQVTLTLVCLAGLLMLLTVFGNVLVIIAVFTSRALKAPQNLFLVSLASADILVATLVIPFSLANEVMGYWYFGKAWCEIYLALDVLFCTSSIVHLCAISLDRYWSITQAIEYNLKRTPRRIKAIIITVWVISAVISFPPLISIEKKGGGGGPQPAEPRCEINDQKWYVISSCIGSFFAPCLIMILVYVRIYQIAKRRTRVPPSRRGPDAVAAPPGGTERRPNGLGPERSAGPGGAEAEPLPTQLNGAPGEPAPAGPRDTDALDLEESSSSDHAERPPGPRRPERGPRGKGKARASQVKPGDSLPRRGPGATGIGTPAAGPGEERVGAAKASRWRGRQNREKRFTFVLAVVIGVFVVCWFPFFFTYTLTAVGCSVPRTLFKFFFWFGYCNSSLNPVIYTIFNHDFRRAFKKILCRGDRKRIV
Text: (§1) Supplement jm1c02175_si_002.xlsx, sheet "SAFETYScan" | column: RC50 (uM); Max Response

ADRB1 = target: T2, ADRB1 (Homo sapiens, UniProt P08588); assay: SAFETYScan GPCR cAMP, Antagonist; format: cell-based
T2 construct: expressed in transfected cells
Text: as §1

ADRB2 = target: T3, ADRB2 (Homo sapiens, UniProt P07550); assay: SAFETYScan GPCR cAMP, Antagonist; format: cell-based
T3 construct: expressed in transfected cells
Text: as §1

CHRM2 = target: T4, CHRM2 (Homo sapiens, UniProt P08172); assay: SAFETYScan GPCR cAMP, Antagonist; format: cell-based
T4 construct: expressed in transfected cells
T4 sequence (P08172 1-466): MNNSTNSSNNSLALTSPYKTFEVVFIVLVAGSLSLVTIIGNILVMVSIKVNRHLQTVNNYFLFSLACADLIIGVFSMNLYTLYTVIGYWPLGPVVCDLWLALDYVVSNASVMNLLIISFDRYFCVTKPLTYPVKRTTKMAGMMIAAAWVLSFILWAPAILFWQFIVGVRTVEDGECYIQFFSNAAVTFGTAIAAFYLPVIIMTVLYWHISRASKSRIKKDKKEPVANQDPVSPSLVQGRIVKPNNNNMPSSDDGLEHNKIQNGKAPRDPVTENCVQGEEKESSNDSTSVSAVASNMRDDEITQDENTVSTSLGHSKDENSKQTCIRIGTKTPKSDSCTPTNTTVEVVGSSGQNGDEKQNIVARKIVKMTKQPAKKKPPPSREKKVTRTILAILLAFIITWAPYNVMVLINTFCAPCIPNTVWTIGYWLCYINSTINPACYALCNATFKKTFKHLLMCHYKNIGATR
Text: as §1

CNR1 = target: T5, CNR1 (Homo sapiens, UniProt P21554); assay: SAFETYScan GPCR cAMP, Antagonist; format: cell-based
T5 construct: expressed in transfected cells
Text: as §1

CNR2 = target: T6, CNR2 (Homo sapiens, UniProt P34972); assay: SAFETYScan GPCR cAMP, Antagonist; format: cell-based
T6 construct: expressed in transfected cells
Text: as §1

DRD1 = target: T7, DRD1 (Homo sapiens, UniProt P21728); assay: SAFETYScan GPCR cAMP, Antagonist; format: cell-based
T7 construct: expressed in transfected cells
Text: as §1

DRD2S = target: T8, DRD2S (Homo sapiens, UniProt P14416); assay: SAFETYScan GPCR cAMP, Antagonist; format: cell-based
T8 construct: expressed in transfected cells
Text: as §1

HRH2 = target: T9, HRH2 (Homo sapiens, UniProt P25021); assay: SAFETYScan GPCR cAMP, Antagonist; format: cell-based
T9 construct: expressed in transfected cells
Text: as §1

HTR1A = target: T10, HTR1A (Homo sapiens, UniProt P08908); assay: SAFETYScan GPCR cAMP, Antagonist; format: cell-based
T10 construct: expressed in transfected cells
T10 sequence (P08908 1-422): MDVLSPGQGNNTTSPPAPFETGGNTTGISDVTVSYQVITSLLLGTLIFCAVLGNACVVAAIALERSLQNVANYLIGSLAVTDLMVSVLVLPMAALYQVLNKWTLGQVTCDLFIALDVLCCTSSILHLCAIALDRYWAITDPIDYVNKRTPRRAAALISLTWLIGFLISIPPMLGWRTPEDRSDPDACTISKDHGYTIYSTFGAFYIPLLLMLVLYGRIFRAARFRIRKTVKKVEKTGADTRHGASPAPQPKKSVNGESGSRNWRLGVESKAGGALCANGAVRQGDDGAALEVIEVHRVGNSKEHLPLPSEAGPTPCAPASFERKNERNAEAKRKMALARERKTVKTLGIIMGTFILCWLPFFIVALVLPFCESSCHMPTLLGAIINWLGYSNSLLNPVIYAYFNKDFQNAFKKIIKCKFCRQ
Text: as §1

HTR1B = target: T11, HTR1B (Homo sapiens, UniProt P28222); assay: SAFETYScan GPCR cAMP, Antagonist; format: cell-based
T11 construct: expressed in transfected cells
Text: as §1

OPRD1 = OPRD1 (Homo sapiens, UniProt P41143); assay: SAFETYScan GPCR cAMP, Antagonist; format: cell-based
Text: as §1

OPRK1 = OPRK1 (Homo sapiens, UniProt P41145); assay: SAFETYScan GPCR cAMP, Antagonist; format: cell-based
Text: as §1

OPRM1 = OPRM1 (Homo sapiens, UniProt P35372); assay: SAFETYScan GPCR cAMP, Antagonist; format: cell-based
Text: as §1

T8 sequence (P14416 1-414 isoform P14416-2): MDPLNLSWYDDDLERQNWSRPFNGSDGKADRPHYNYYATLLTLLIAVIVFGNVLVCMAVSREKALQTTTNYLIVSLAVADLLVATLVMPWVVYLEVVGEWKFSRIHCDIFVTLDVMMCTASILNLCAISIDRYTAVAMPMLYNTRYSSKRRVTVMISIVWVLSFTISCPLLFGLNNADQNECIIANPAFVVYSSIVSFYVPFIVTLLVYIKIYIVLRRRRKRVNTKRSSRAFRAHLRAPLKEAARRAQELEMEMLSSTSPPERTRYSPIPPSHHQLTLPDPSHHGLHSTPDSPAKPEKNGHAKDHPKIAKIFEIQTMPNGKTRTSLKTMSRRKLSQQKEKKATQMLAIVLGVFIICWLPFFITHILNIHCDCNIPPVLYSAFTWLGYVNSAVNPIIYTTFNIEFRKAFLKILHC
T11 sequence (P28222 whole entry): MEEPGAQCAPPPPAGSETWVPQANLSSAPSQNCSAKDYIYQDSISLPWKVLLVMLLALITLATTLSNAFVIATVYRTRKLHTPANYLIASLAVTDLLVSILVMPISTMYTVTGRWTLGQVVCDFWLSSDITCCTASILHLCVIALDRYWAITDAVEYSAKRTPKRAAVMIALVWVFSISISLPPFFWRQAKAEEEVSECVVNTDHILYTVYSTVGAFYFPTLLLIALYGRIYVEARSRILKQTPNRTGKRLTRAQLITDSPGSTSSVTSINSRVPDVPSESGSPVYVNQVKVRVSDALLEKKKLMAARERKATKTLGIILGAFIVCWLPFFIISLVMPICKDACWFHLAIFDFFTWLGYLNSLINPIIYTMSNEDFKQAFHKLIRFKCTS
T6 sequence (P34972 whole entry): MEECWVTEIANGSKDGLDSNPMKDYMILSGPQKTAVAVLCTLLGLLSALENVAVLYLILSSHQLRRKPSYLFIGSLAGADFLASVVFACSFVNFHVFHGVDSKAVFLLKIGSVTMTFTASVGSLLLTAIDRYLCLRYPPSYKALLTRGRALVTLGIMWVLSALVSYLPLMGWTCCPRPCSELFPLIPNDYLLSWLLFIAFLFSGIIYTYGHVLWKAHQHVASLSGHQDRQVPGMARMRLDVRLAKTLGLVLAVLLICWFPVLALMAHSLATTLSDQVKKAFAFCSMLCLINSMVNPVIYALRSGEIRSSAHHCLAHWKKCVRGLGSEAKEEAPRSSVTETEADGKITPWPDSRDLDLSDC
T7 sequence (P21728 whole entry): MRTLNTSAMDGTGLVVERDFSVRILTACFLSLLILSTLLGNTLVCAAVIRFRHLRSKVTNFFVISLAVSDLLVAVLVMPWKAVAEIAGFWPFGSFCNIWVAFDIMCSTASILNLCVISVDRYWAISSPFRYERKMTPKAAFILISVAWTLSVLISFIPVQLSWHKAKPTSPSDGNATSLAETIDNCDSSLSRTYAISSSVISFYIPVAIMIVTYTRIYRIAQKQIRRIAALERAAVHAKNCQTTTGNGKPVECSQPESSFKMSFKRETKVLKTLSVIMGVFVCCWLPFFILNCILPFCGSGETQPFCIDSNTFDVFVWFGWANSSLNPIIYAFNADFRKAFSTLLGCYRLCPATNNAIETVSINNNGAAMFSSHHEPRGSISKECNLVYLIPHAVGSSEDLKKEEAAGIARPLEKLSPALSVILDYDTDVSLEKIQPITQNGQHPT
Chain of OPRK1 (P41145 whole entry, species assumed): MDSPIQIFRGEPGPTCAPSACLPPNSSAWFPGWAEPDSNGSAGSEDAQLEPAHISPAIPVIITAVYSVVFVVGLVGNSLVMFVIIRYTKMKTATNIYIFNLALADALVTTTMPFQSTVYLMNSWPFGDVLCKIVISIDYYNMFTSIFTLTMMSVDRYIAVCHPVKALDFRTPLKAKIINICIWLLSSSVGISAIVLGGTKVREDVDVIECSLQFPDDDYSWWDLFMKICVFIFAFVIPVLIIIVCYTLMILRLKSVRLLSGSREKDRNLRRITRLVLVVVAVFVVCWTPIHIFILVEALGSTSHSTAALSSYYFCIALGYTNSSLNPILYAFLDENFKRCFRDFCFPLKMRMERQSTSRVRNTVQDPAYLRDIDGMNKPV
Chain of OPRD1 (P41143 whole entry, species assumed): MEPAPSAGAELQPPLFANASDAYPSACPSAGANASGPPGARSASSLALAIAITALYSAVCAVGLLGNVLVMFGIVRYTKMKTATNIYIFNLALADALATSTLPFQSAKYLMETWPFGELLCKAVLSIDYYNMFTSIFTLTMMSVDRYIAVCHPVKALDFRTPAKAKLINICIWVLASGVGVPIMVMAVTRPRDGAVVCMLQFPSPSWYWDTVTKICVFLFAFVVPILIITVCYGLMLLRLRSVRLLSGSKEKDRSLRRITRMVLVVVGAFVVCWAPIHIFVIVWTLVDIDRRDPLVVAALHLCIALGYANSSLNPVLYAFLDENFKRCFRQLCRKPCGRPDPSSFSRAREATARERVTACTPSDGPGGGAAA
T5 sequence (P21554 whole entry): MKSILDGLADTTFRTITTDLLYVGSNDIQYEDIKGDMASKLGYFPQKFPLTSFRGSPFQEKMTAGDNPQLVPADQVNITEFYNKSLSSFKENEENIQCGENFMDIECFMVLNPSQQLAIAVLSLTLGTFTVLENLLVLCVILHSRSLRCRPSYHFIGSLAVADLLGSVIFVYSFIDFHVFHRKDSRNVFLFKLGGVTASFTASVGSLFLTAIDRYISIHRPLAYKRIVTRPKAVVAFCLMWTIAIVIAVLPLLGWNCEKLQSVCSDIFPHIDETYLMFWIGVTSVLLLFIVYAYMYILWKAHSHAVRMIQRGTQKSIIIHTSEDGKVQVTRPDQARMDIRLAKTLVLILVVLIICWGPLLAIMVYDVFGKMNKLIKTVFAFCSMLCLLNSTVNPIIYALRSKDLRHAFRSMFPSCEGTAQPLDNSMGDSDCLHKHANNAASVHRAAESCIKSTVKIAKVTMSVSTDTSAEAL
T3 sequence (P07550 whole entry): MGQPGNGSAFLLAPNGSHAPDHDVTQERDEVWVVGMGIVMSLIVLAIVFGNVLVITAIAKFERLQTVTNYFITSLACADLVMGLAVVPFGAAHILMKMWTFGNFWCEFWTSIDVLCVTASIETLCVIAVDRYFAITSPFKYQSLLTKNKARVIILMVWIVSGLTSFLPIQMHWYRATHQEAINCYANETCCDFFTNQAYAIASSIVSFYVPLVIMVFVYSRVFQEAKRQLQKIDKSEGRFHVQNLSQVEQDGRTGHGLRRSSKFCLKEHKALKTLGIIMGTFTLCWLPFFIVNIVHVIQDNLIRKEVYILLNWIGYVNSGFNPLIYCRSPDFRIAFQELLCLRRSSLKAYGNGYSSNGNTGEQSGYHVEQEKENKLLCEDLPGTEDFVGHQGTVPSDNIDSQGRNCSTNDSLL
T9 sequence (P25021 whole entry): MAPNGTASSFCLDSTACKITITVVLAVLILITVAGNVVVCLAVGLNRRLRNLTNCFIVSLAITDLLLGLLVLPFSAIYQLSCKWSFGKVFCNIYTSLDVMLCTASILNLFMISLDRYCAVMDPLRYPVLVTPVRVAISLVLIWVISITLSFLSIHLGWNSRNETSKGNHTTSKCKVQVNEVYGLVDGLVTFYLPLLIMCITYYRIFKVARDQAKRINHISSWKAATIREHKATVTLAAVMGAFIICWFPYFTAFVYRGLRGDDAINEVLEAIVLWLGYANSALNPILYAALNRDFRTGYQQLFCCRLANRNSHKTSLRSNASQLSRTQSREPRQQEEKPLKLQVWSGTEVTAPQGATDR
T2 sequence (P08588 whole entry): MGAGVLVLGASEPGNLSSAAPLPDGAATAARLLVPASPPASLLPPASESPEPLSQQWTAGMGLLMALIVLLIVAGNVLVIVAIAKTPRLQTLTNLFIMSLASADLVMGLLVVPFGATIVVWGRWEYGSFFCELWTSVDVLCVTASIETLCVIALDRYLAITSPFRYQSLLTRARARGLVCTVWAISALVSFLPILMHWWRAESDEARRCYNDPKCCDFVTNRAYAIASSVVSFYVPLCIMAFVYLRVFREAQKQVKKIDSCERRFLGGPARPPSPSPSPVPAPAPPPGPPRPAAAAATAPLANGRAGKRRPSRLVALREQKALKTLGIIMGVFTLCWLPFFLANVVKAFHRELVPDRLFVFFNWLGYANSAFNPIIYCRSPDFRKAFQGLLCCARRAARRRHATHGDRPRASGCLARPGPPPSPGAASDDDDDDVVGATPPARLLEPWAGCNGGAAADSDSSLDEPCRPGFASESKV
Chain of OPRM1 (P35372 whole entry, species assumed): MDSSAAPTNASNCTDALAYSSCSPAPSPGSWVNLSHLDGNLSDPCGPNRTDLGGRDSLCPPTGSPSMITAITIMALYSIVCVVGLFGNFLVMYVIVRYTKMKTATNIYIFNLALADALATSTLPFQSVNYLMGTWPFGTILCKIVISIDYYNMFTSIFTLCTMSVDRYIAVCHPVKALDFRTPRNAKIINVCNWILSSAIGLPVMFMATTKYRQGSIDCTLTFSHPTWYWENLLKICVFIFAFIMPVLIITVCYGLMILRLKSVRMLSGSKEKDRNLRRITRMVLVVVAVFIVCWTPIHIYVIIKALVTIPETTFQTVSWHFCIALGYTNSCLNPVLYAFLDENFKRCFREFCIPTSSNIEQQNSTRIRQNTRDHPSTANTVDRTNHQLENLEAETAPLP

SMILES: C[C@H]1C[C@@H](O)CN(c2ncc(Cl)c(Nc3ccc4c(c3)c3c(c(=O)n4C)OCC(F)(F)[C@H](C4CC4)N3)n2)C1 [CCT373566_9A]
- Percent Control (kinases (468) [1]): 95%
- Percent Control (kinases (468) [2]): 89%
- Percent Control (kinases (468) [3]): 91%

SMILES: C[C@H]1C[C@@H](O)CN(c2ncc(Cl)c(Nc3ccc4c(c3)c3c(c(=O)n4C)OCC(F)(F)[C@H](C4CC4)N3)n2)C1 [12a CCT373566, (S)-10-((5-Chloro-2-((3R,5S)-3-hydroxy-5-methylpiperidin-1-yl)pyrimidin-4-yl)amino)-2-cyclopropyl-3,3-difluoro-7-methyl-1,2,3,4-tetrahydro-[1,4]oxazepino[2,3-c]quinolin-6(7H)-one]
- Emax (ADRA2A; read-out: Max Response): 0%
- pIC50 (ADRA2A; read-out: RC50 (IC50)): < 5.00
- Emax (ADRB1; read-out: Max Response): 57.3%
- pIC50 (ADRB1; read-out: RC50 (IC50)): < 5.00
- Emax (ADRB2; read-out: Max Response): 62.3%
- pIC50 (ADRB2; read-out: RC50 (IC50)): 5.76
- Emax (CHRM2; read-out: Max Response): 30.1%
- pIC50 (CHRM2; read-out: RC50 (IC50)): < 5.00
- Emax (CNR1; read-out: Max Response): 1.95%
- pIC50 (CNR1; read-out: RC50 (IC50)): < 5.00
- Emax (CNR2; read-out: Max Response): 10.7%
- pIC50 (CNR2; read-out: RC50 (IC50)): < 5.00
- Emax (DRD1; read-out: Max Response): 51.9%
- pIC50 (DRD1; read-out: RC50 (IC50)): 5.31
- Emax (DRD2S; read-out: Max Response): 28.7%
- pIC50 (DRD2S; read-out: RC50 (IC50)): < 5.00
- Emax (HRH2; read-out: Max Response): 46.3%
- pIC50 (HRH2; read-out: RC50 (IC50)): < 5.00
- Emax (HTR1A; read-out: Max Response): 13.8%
- pIC50 (HTR1A; read-out: RC50 (IC50)): < 5.00
- Emax (HTR1B; read-out: Max Response): 5.08%
- pIC50 (HTR1B; read-out: RC50 (IC50)): < 5.00
- Emax (OPRD1; read-out: Max Response): 0%
- pIC50 (OPRD1; read-out: RC50 (IC50)): < 5.00
- Emax (OPRK1; read-out: Max Response): 1.28%
- pIC50 (OPRK1; read-out: RC50 (IC50)): < 5.00
- Emax (OPRM1; read-out: Max Response): 9.16%
- pIC50 (OPRM1; read-out: RC50 (IC50)): < 5.00
